Test results reported in PubChem BioAssay AID328 (DTP/NCI, 2004).
“And” between values parts separate entries of the source, which are not always exact repeats. Equal entries are not always repeated. Inconclusive results and toxic doses are left out.

Test system: BDF1 mice, P388 leukemia ip, median survival T/C
Test: NCI In Vivo Anticancer Drug Screen. Data for tumor model P388 Leukemia (intraperitoneal) in B6D2F1 (BDF1) mice
Conditions: endpoint: median survival time, higher = longer survival
Outline: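 Transplantable tumour in mice; compound vs vehicle dosing; survival scored; ratio of treated to control reported.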

[1] = dose: 100.0 mg/kg/injection, schedule: Q01DX009 (ip), vehicle: Klucel (hydroxypropylcellulose) (HPC)
[2] = dose: 200.0 mg/kg/injection, schedule: Q01DX009 (ip), vehicle: Klucel (hydroxypropylcellulose) (HPC)
[3] = dose: 50.0 mg/kg/injection, schedule: Q01DX009 (ip), vehicle: saline with Tween-80
[4] = dose: 100.0 mg/kg/injection, schedule: Q01DX009 (ip), vehicle: saline with Tween-80
[5] = dose: 200.0 mg/kg/injection, schedule: Q01DX009 (ip), vehicle: saline with Tween-80
[6] = dose: 1.0 mg/kg/injection, schedule: Q01DX009 (ip), vehicle: saline
[7] = dose: 5.5 mg/kg/injection, schedule: Q01DX009 (ip), vehicle: saline

## CC(Cl)(Cl)CC(O)(C(F)(F)F)C(F)(F)F
dose: 50.0 mg/kg/injection, schedule: Q04DX003 (ip), vehicle: saline with Tween-80
  T/C: 95 % of control
dose: 100.0 mg/kg/injection, schedule: Q04DX003 (ip), vehicle: saline with Tween-80
  T/C: 90 % of control
dose: 200.0 mg/kg/injection, schedule: Q04DX003 (ip), vehicle: saline with Tween-80
  T/C: 90 % of control

## O=C(c1ccccc1)N(Nc1ccccc1)c1ccccc1
[1]
  T/C: 95 % of control
dose: 100.0 mg/kg/injection, schedule: Q04DX003 (ip), vehicle: Klucel (hydroxypropylcellulose) (HPC)
  T/C: 100 % of control
[2]
  T/C: 109 % of control
dose: 200.0 mg/kg/injection, schedule: Q04DX003 (ip), vehicle: Klucel (hydroxypropylcellulose) (HPC)
  T/C: 100 % of control
dose: 400.0 mg/kg/injection, schedule: Q01DX009 (ip), vehicle: Klucel (hydroxypropylcellulose) (HPC)
  T/C: 95 % of control
dose: 400.0 mg/kg/injection, schedule: Q04DX003 (ip), vehicle: Klucel (hydroxypropylcellulose) (HPC)
  T/C: 100 % of control

## COc1ccc(NC(=O)Nc2ccccc2F)cc1
dose: 100.0 mg/kg/injection, schedule: Q01DX001 (ip), vehicle: saline with Tween-80
  T/C: 95 % of control
dose: 200.0 mg/kg/injection, schedule: Q01DX001 (ip), vehicle: saline with Tween-80
  T/C: 95 % of control
dose: 400.0 mg/kg/injection, schedule: Q01DX001 (ip), vehicle: saline with Tween-80
  T/C: 95 % of control

## CCCCCCCCCCCCCCCCCC[N+]1([O-])CCCC1
dose: 12.5 mg/kg/injection, schedule: Q01DX009 (ip), vehicle: water
  T/C: 100 % of control
dose: 25.0 mg/kg/injection, schedule: Q01DX009 (ip), vehicle: water
  T/C: 93 % of control
dose: 50.0 mg/kg/injection, schedule: Q01DX009 (ip), vehicle: water
  T/C: 93 % of control

## O=C1SC(c2ccccc2)=S=C1c1ccccc1
[3]
  T/C: 108 % of control
[4]
  T/C: 123 % of control
[5]
  T/C: 123 % of control
dose: 400.0 mg/kg/injection, schedule: Q01DX009 (ip), vehicle: saline with Tween-80
  T/C: 117 % of control

## ClCCN(CCCl)c1ccc(/C=C\c2ccnc3ccccc23)cc1
[4]
  T/C: 104 % of control
[5]
  T/C: 86 % of control

## CC1CC(O)C2C3(C)CCCC2(COC3=O)C12CCC1(CCOC1=O)O2 (stereo not drawn)
dose: 0.13 mg/kg/injection, schedule: Q01DX009 (ip), vehicle: saline
  T/C: 112 % of control
dose: 0.25 mg/kg/injection, schedule: Q01DX009 (ip), vehicle: saline
  T/C: 104 % of control
dose: 0.5 mg/kg/injection, schedule: Q01DX009 (ip), vehicle: saline
  T/C: 93 % of control
[6]
  T/C: 104 % of control

## O=c1c[n+](-c2ccccc2)[nH]o1
[1]
  T/C: 115 % of control
[2]
  T/C: 90 % of control

## COC(=O)C12OCC34C(CC5C(C)=C(O)C(=O)CC5(C)C3C(O)C1O)OC(=O)C(O)C24 (stereo not drawn)
dose: 5.0 micrograms/kg/injection, schedule: Q01DX009 (ip), vehicle: saline
  T/C: 100 % of control
dose: 10.0 micrograms/kg/injection, schedule: Q01DX009 (ip), vehicle: saline
  T/C: 109 % of control
dose: 20.0 micrograms/kg/injection, schedule: Q01DX009 (ip), vehicle: saline
  T/C: 118 % of control

## Cc1nnc(NS(=O)(=O)c2ccc(N=Nc3nc4[nH]c(N)nc(=S)c4[nH]3)cc2)s1
[7]
  T/C: 114 % of control
dose: 12.5 mg/kg/injection, schedule: Q04DX003 (ip), vehicle: Klucel (hydroxypropylcellulose) (HPC)
  T/C: 95 % of control
dose: 25.0 mg/kg/injection, schedule: Q04DX003 (ip), vehicle: Klucel (hydroxypropylcellulose) (HPC)
  T/C: 104 % of control
dose: 50.0 mg/kg/injection, schedule: Q04DX003 (ip), vehicle: Klucel (hydroxypropylcellulose) (HPC)
  T/C: 100 % of control
dose: 80.0 mg/kg/injection, schedule: Q01DX009 (ip), vehicle: Klucel (hydroxypropylcellulose) (HPC)
  T/C: 155 % of control
dose: 170.0 mg/kg/injection, schedule: Q01DX009 (ip), vehicle: saline
  T/C: 172 % of control

## C=COCC(C)C (tested in a mixture with another compound)
dose: 0.19 mg/kg/injection, schedule: Q01DX009 (ip), vehicle: Klucel (hydroxypropylcellulose) (HPC)
  T/C: 105 % of control
dose: 0.39 mg/kg/injection, schedule: Q01DX009 (ip), vehicle: Klucel (hydroxypropylcellulose) (HPC)
  T/C: 120 % of control
dose: 0.78 mg/kg/injection, schedule: Q01DX009 (ip), vehicle: Klucel (hydroxypropylcellulose) (HPC)
  T/C: 120 % of control
dose: 0.78 mg/kg/injection, schedule: Q04DX003 (ip), vehicle: saline
  T/C: 104 % of control
dose: 1.56 mg/kg/injection, schedule: Q01DX009 (ip), vehicle: Klucel (hydroxypropylcellulose) (HPC)
  T/C: 100 % of control
dose: 1.56 mg/kg/injection, schedule: Q04DX003 (ip), vehicle: Klucel (hydroxypropylcellulose) (HPC)
  T/C: 109 % of control
dose: 1.56 mg/kg/injection, schedule: Q04DX003 (ip), vehicle: saline
  T/C: 95 % of control
dose: 3.12 mg/kg/injection, schedule: Q04DX003 (ip), vehicle: Klucel (hydroxypropylcellulose) (HPC)
  T/C: 104 % of control
dose: 3.12 mg/kg/injection, schedule: Q04DX003 (ip), vehicle: saline
  T/C: 104 % of control
dose: 4.6 mg/kg/injection, schedule: Q04DX003 (ip), vehicle: saline
  T/C: 104 % of control
dose: 6.25 mg/kg/injection, schedule: Q04DX003 (ip), vehicle: Klucel (hydroxypropylcellulose) (HPC)
  T/C: 113 % of control
dose: 7.0 mg/kg/injection, schedule: Q04DX003 (ip), vehicle: saline
  T/C: 109 % of control
dose: 7.5 mg/kg/injection, schedule: Q01DX001 (ip), vehicle: alcohol
  T/C: 91 % of control
dose: 8.75 mg/kg/injection, schedule: Q01DX009 (ip), vehicle: saline with Tween-80
  T/C: 110 % of control
dose: 10.0 mg/kg/injection, schedule: Q04DX003 (ip), vehicle: saline
  T/C: 104 % of control
dose: 15.0 mg/kg/injection, schedule: Q01DX001 (ip), vehicle: alcohol
  T/C: 104 % of control
dose: 17.5 mg/kg/injection, schedule: Q01DX009 (ip), vehicle: saline with Tween-80
  T/C: 95 % of control
dose: 30.0 mg/kg/injection, schedule: Q01DX001 (ip), vehicle: alcohol
  T/C: 104 % of control

## COc1ccc(OC)c(C(=O)C[n+]2ccccc2)c1
dose: 25.0 mg/kg/injection, schedule: Q01DX009 (ip), vehicle: saline with Tween-80
  T/C: 91 % of control
[3]
  T/C: 91 % of control

## NNc1cnc2ccccc2n1
dose: 37.5 mg/kg/injection, schedule: Q04DX003 (ip), vehicle: saline with Tween-80
  T/C: 100 % of control
dose: 75.0 mg/kg/injection, schedule: Q04DX003 (ip), vehicle: saline with Tween-80
  T/C: 191 % of control
dose: 150.0 mg/kg/injection, schedule: Q04DX003 (ip), vehicle: saline with Tween-80
  T/C: 100 % of control

## CC(=O)OCC1OC(N)C(OC(C)=O)C(OC(C)=O)C1OC(C)=O (stereo not drawn)
[3]
  T/C: 97 % of control
[4]
  T/C: 92 % of control
[5]
  T/C: 96 % of control

## Oc1cc(O)c(CN(CCCl)CCCl)cc1CN(CCCl)CCCl
[6]
  T/C: 118 % of control
dose: 1.5 mg/kg/injection, schedule: Q01DX009 (ip), vehicle: saline
  T/C: 118 % of control
dose: 2.4 mg/kg/injection, schedule: Q01DX009 (ip), vehicle: saline
  T/C: 157 % of control
dose: 3.6 mg/kg/injection, schedule: Q01DX009 (ip), vehicle: saline
  T/C: 182 % of control
dose: 5.4 mg/kg/injection, schedule: Q01DX009 (ip), vehicle: saline
  T/C: 166 % of control
[7]
  T/C: 168 % of control
dose: 8.2 mg/kg/injection, schedule: Q01DX009 (ip), vehicle: saline
  T/C: 176 % of control
dose: 8.25 mg/kg/injection, schedule: Q01DX009 (ip), vehicle: saline
  T/C: 165 % of control and 180 % of control
dose: 9.9 mg/kg/injection, schedule: Q04DX003 (ip), vehicle: saline
  T/C: 163 % of control
dose: 15.0 mg/kg/injection, schedule: Q04DX003 (ip), vehicle: saline
  T/C: 220 % of control
dose: 16.0 mg/kg/injection, schedule: Q01DX009 (ip), vehicle: saline
  T/C: 194 % of control
dose: 18.75 mg/kg/injection, schedule: Q01DX009 (ip), vehicle: saline
  T/C: 195 % of control and 200 % of control
dose: 23.0 mg/kg/injection, schedule: Q04DX003 (ip), vehicle: saline
  T/C: 160 % of control
dose: 25.0 mg/kg/injection, schedule: Q01DX009 (ip), vehicle: saline
  T/C: 162 % of control and 202 % of control and 222 % of control
dose: 35.0 mg/kg/injection, schedule: Q01DX009 (ip), vehicle: saline
  T/C: 185 % of control
dose: 35.0 mg/kg/injection, schedule: Q04DX003 (ip), vehicle: saline
  T/C: 190 % of control and 200 % of control
dose: 50.0 mg/kg/injection, schedule: Q01DX009 (ip), vehicle: saline
  T/C: 150 % of control
dose: 55.0 mg/kg/injection, schedule: Q04DX003 (ip), vehicle: saline
  T/C: 250 % of control and 212 % of control
dose: 80.0 mg/kg/injection, schedule: Q04DX003 (ip), vehicle: saline
  T/C: 250 % of control and 208 % of control
dose: 100.0 mg/kg/injection, schedule: Q01DX009 (ip), vehicle: saline
  T/C: 86 % of control
dose: 200.0 mg/kg/injection, schedule: Q01DX009 (ip), vehicle: saline
  T/C: 177 % of control
